Data from PubChem BioAssay AID1259407 (Chemical Carcinogenesis Research Information System (CCRIS), 2018).
Activity calls are given as the source filed them. The rule behind the calls is not given here.

Test system: CCRIS mutagenicity, Ames/micronucleus/aberration tests
Test: CCRIS mutagenicity studies
[1] = Test System: AMES SALMONELLA TYPHIMURIUM, Strain/Indicator: TA98, Metabolic Activation: NONE, Method: PREINCUBATION
[2] = Test System: AMES SALMONELLA TYPHIMURIUM, Strain/Indicator: TA100, Metabolic Activation: NONE, Method: PREINCUBATION
[3] = Test System: AMES SALMONELLA TYPHIMURIUM, Strain/Indicator: TA1535, Metabolic Activation: NONE, Method: PREINCUBATION
[4] = Test System: AMES SALMONELLA TYPHIMURIUM, Strain/Indicator: TA1537, Metabolic Activation: NONE, Method: PREINCUBATION

Measured: mutagenic call

Cc1[nH]c(=O)c(C#N)cc1-c1ccncc1
inactive: Test System: AMES SALMONELLA TYPHIMURIUM, Strain/Indicator: TA97, Metabolic Activation: NONE inactive; negative | Test System: AMES SALMONELLA TYPHIMURIUM, Strain/Indicator: TA97, Metabolic Activation: S-9 inactive; negative | Test System: AMES SALMONELLA TYPHIMURIUM, Strain/Indicator: TA98, Metabolic Activation: NONE inactive; negative | [1] inactive; negative | Test System: AMES SALMONELLA TYPHIMURIUM, Strain/Indicator: TA98, Metabolic Activation: RAT, LIVER, S-9, PHENOBARBITAL AND 5,6-BENZOFLAVONE, Method: PREINCUBATION inactive; negative | Test System: AMES SALMONELLA TYPHIMURIUM, Strain/Indicator: TA98, Metabolic Activation: S-9 inactive; negative | [2] inactive; negative | Test System: AMES SALMONELLA TYPHIMURIUM, Strain/Indicator: TA100, Metabolic Activation: RAT, LIVER, S-9, PHENOBARBITAL AND 5,6-BENZOFLAVONE, Method: PREINCUBATION inactive; negative | Test System: AMES SALMONELLA TYPHIMURIUM, Strain/Indicator: TA100, Metabolic Activation: S-9 inactive; negative | Test System: AMES SALMONELLA TYPHIMURIUM, Strain/Indicator: TA102, Metabolic Activation: NONE inactive; negative | Test System: AMES SALMONELLA TYPHIMURIUM, Strain/Indicator: TA102, Metabolic Activation: S-9 inactive; negative | [3] inactive; negative | Test System: AMES SALMONELLA TYPHIMURIUM, Strain/Indicator: TA1535, Metabolic Activation: RAT, LIVER, S-9, PHENOBARBITAL AND 5,6-BENZOFLAVONE, Method: PREINCUBATION inactive; negative | [4] inactive; negative | Test System: AMES SALMONELLA TYPHIMURIUM, Strain/Indicator: TA1537, Metabolic Activation: RAT, LIVER, S-9, PHENOBARBITAL AND 5,6-BENZOFLAVONE, Method: PREINCUBATION inactive; negative | Test System: E. COLI, Strain/Indicator: WP2 UVRA, Metabolic Activation: NONE, Method: PREINCUBATION inactive; negative | Test System: E. COLI, Strain/Indicator: WP2 UVRA, Metabolic Activation: RAT, LIVER, S-9, PHENOBARBITAL AND 5,6-BENZOFLAVONE, Method: PREINCUBATION inactive; negative | Test System: MOUSE LYMPHOMA, Strain/Indicator: L5178Y (TK+/TK-), Metabolic Activation: NONE, Method: SUSPENSION/PLATE inactive; negative | Test System: MOUSE LYMPHOMA, Strain/Indicator: L5178Y (TK+/TK-), Metabolic Activation: RAT, LIVER, S-9, PHENOBARBITAL AND 5,6-BENZOFLAVONE, Method: SUSPENSION/PLATE inactive; negative

O=C1CCCCCCCCCCCC(=O)OCCO1
inactive: [1] inactive; negative | Test System: AMES SALMONELLA TYPHIMURIUM, Strain/Indicator: TA98, Metabolic Activation: RAT, LIVER, S-9, SODIUM PHENOBARBITAL AND 5,6-BENZOFLAVONE, Method: PREINCUBATION inactive; negative | [2] inactive; negative | Test System: AMES SALMONELLA TYPHIMURIUM, Strain/Indicator: TA100, Metabolic Activation: RAT, LIVER, S-9, SODIUM PHENOBARBITAL AND 5,6-BENZOFLAVONE, Method: PREINCUBATION inactive; negative | Test System: AMES SALMONELLA TYPHIMURIUM, Strain/Indicator: TA102, Metabolic Activation: NONE, Method: PREINCUBATION inactive; negative | Test System: AMES SALMONELLA TYPHIMURIUM, Strain/Indicator: TA102, Metabolic Activation: RAT, LIVER, S-9, SODIUM PHENOBARBITAL AND 5,6-BENZOFLAVONE, Method: PREINCUBATION inactive; negative | Test System: AMES SALMONELLA TYPHIMURIUM, Strain/Indicator: TA104, Metabolic Activation: NONE, Method: PREINCUBATION inactive; negative | Test System: AMES SALMONELLA TYPHIMURIUM, Strain/Indicator: TA104, Metabolic Activation: RAT, LIVER, S-9, SODIUM PHENOBARBITAL AND 5,6-BENZOFLAVONE, Method: PREINCUBATION inactive; negative | [3] inactive; negative | Test System: AMES SALMONELLA TYPHIMURIUM, Strain/Indicator: TA1535, Metabolic Activation: RAT, LIVER, S-9, SODIUM PHENOBARBITAL AND 5,6-BENZOFLAVONE, Method: PREINCUBATION inactive; negative | [4] inactive; negative | Test System: AMES SALMONELLA TYPHIMURIUM, Strain/Indicator: TA1537, Metabolic Activation: RAT, LIVER, S-9, SODIUM PHENOBARBITAL AND 5,6-BENZOFLAVONE, Method: PREINCUBATION inactive; negative | Test System: E. COLI, Strain/Indicator: WP2UVRA/PKM101, Metabolic Activation: NONE, Method: PREINCUBATION inactive; negative | Test System: E. COLI, Strain/Indicator: WP2UVRA/PKM101, Metabolic Activation: RAT, LIVER, S-9, SODIUM PHENOBARBITAL AND 5,6-BENZOFLAVONE, Method: PREINCUBATION inactive; negative | Test System: E. COLI, Strain/Indicator: WP2UVRA, Metabolic Activation: NONE, Method: PREINCUBATION inactive; negative | Test System: E. COLI, Strain/Indicator: WP2UVRA, Metabolic Activation: RAT, LIVER, S-9, SODIUM PHENOBARBITAL AND 5,6-BENZOFLAVONE, Method: PREINCUBATION inactive; negative

C=CCOC(=O)C=C
inactive: Test System: AMES SALMONELLA TYPHIMURIUM, Strain/Indicator: TA97, Metabolic Activation: HAMSTER, LIVER, S-9, AROCLOR 1254 (10 OR 30%), Method: PREINCUBATION inactive; negative | Test System: AMES SALMONELLA TYPHIMURIUM, Strain/Indicator: TA97, Metabolic Activation: NONE, Method: PREINCUBATION inactive; negative | Test System: AMES SALMONELLA TYPHIMURIUM, Strain/Indicator: TA97, Metabolic Activation: RAT, LIVER, S-9, AROCLOR 1254 (10 OR 30%), Method: PREINCUBATION inactive; negative | Test System: AMES SALMONELLA TYPHIMURIUM, Strain/Indicator: TA98, Metabolic Activation: HAMSTER, LIVER, S-9, AROCLOR 1254 (10%), Method: PREINCUBATION inactive; negative | Test System: AMES SALMONELLA TYPHIMURIUM, Strain/Indicator: TA98, Metabolic Activation: HAMSTER, LIVER, S-9, AROCLOR 1254 (30%), Method: PREINCUBATION inactive; negative | [1] inactive; negative | Test System: AMES SALMONELLA TYPHIMURIUM, Strain/Indicator: TA98, Metabolic Activation: RAT, LIVER, S-9, AROCLOR 1254 (10%), Method: PREINCUBATION inactive; negative | Test System: AMES SALMONELLA TYPHIMURIUM, Strain/Indicator: TA98, Metabolic Activation: RAT, LIVER, S-9, AROCLOR 1254 (30%), Method: PREINCUBATION inactive; negative | Test System: AMES SALMONELLA TYPHIMURIUM, Strain/Indicator: TA100, Metabolic Activation: HAMSTER, LIVER, S-9, AROCLOR 1254 (10%), Method: PREINCUBATION inactive; negative | Test System: AMES SALMONELLA TYPHIMURIUM, Strain/Indicator: TA100, Metabolic Activation: HAMSTER, LIVER, S-9, AROCLOR 1254 (30%), Method: PREINCUBATION inactive; negative | [2] inactive; negative | Test System: AMES SALMONELLA TYPHIMURIUM, Strain/Indicator: TA100, Metabolic Activation: RAT, LIVER, S-9, AROCLOR 1254 (10%), Method: PREINCUBATION inactive; negative | Test System: AMES SALMONELLA TYPHIMURIUM, Strain/Indicator: TA100, Metabolic Activation: RAT, LIVER, S-9, AROCLOR 1254 (30%), Method: PREINCUBATION inactive; negative | Test System: AMES SALMONELLA TYPHIMURIUM, Strain/Indicator: TA1535, Metabolic Activation: HAMSTER, LIVER, S-9, AROCLOR 1254 (10%), Method: PREINCUBATION inactive; negative | Test System: AMES SALMONELLA TYPHIMURIUM, Strain/Indicator: TA1535, Metabolic Activation: HAMSTER, LIVER, S-9, AROCLOR 1254 (30%), Method: PREINCUBATION inactive; negative | [3] inactive; negative | Test System: AMES SALMONELLA TYPHIMURIUM, Strain/Indicator: TA1535, Metabolic Activation: RAT, LIVER, S-9, AROCLOR 1254 (10%), Method: PREINCUBATION inactive; negative | Test System: AMES SALMONELLA TYPHIMURIUM, Strain/Indicator: TA1535, Metabolic Activation: RAT, LIVER, S-9, AROCLOR 1254 (30%), Method: PREINCUBATION inactive; negative | Test System: AMES SALMONELLA TYPHIMURIUM, Strain/Indicator: TA1537, Metabolic Activation: HAMSTER, LIVER, S-9, AROCLOR 1254 (10%), Method: PREINCUBATION inactive; negative | [4] inactive; negative | Test System: AMES SALMONELLA TYPHIMURIUM, Strain/Indicator: TA1537, Metabolic Activation: RAT, LIVER, S-9, AROCLOR 1254 (10%), Method: PREINCUBATION inactive; negative
